From patent US20220088014A1 (priority 2019, published 2022)
Where two headings read alike, the source gives them in different places.

Experiments:
[1] = Pretreatment study: effect on heroin self-administration; assay type: in vivo, rhesus monkeys
[2] = rat, in vivo
[3] = Cue-induced reinstatement (relapse) in heroin addicted rats; assay type: in vivo, male Long-Evans hooded rats
[4] = IV self-administration substitution study in heroin-maintained primates (FR 30)
[5] = Dose-finding study: lever pressing for food (FR 10); details: two monkeys
[6] = Rat tolerance/dependence study, 28 day repeated dosing and withdrawal

SMILES | Heroin infusions per session (mean ± SEM, N = 4) ([1]; pretreatment 0.1 mg/kg IV 15 minutes prior) | Heroin infusions per session (mean ± SEM, N = 4) ([1]; pretreatment 1.0 mg/kg IV 15 minutes prior) | Heroin infusions per session (mean ± SEM, N = 4) ([1]; pretreatment 1.0 mg/kg SC (100% PEG) 15 minutes prior) | t-1/2 ([2]; po, 10 mg/kg) [h] | t-1/2 ([2]; sc, 3 mg/kg) [h] | Active lever presses during the reinstatement test session ([3]; 1 mg/kg s.c. 30 minutes pre-session) | Active lever presses during the reinstatement test session ([3]; 3 mg/kg s.c. 30 minutes pre-session) | Active lever presses during the reinstatement test session ([3]; 10 mg/kg s.c. 30 minutes pre-session) | Infusions per session (mean ± SEM, N = 4) ([4]; 0.01 mg/kg/infusion IV) | Infusions per session (mean ± SEM, N = 4) ([4]; 0.1 mg/kg/infusion IV) | average rate of responding for food ([5]; 0.0001 mg/kg IV) [responses per second] | average rate of responding for food ([5]; 0.001 mg/kg IV) [responses per second] | average rate of responding for food ([5]; 0.01 mg/kg IV) [responses per second] | average rate of responding for food ([5]; 0.1 mg/kg IV) [responses per second] | predominant behavioral and physical effects during the dosing phase ([6]; 0.3 mg/kg s.c. four times per day) | tolerance during dosing for 28 days ([6]; 0.3 and 3 mg/kg s.c. four times per day) | physical dependence upon cessation of dosing ([6]; 0.3 and 3 mg/kg s.c. four times per day, 28 days) | effect on animal body weight, food and water intake or body temperature ([6]; 0.3 and 3 mg/kg s.c. four times per day, on-dose or withdrawal phase) | main behavioral and physical signs during the dosing phase ([6]; higher dose, 3 mg/kg s.c. four times per day) | tolerance and dependence ([6]; 30 mg/kg orally twice per day, 28 days)
O=C1CN2c3c(cccc3[C@@H]3CN(CCCOc4ccc(F)cc4)CC[C@@H]32)N1 [Example 1, (6bR,10aS)-8-(3-(4-fluorophenoxy)propyl)-6b,7,8,9,10,10a-hexahydro-1H-pyrido[3′,4′:4,5]pyrrolo[1,2,3-de]quinoxalin-2(3H)-one] | 24.8 ± 0.8 | 23.3 ± 2.8 | 24.5 ± 1.9 | 3.1 | 9.5 | 22.64 | 31.17 | 29.50 | 0.6 ± 0.2 | 1.5 ± 0.3 | 0.94±0.01 | 0.86±0.11 | 0.97±0.21 | 0.98±0.24 | hunched posture, Straub tail and piloerection | does not produce tolerance | not to produce a syndrome of physical dependence | no significant effect | hunched posture, subdued behavior, Straub tail, tail rattle and piloerection | –
CN1CC[C@]23c4c5ccc(O)c4O[C@H]2[C@@H](O)C=C[C@H]3[C@H]1C5 [Morphine, morphine, reference compound] | – | – | – | – | – | – | – | – | – | – | – | – | – | – | – | – | – | – | – | clear signs of tolerance and dependence
